Measured values as given in ChEMBL document CHEMBL5291721, “A preclinical secondary pharmacology resource illuminates target-adverse drug reaction associations of marketed drugs” (Nat Commun, 2023).

Assays:
[1] = biological target: T1, Alpha-2B adrenergic receptor (Homo sapiens, UniProt P18089)
T1 sequence (P18089 whole entry): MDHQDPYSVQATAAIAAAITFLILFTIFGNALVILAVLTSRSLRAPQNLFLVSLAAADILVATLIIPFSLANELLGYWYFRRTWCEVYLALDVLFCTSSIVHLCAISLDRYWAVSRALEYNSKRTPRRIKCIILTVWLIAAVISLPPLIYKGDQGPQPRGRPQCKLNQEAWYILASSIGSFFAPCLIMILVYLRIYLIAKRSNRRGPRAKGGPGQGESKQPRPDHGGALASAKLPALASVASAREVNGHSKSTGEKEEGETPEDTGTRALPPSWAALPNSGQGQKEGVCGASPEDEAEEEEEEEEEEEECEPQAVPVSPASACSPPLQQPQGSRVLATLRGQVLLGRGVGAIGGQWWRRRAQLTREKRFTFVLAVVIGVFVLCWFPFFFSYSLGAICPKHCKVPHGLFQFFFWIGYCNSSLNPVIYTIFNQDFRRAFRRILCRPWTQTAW

[2] = biological target: Beta-2 adrenergic receptor (Homo sapiens, UniProt P07550)
Vasopressin V1a receptor = Vasopressin V1a receptor (Homo sapiens, UniProt P37288)
Vasopressin V2 receptor = Vasopressin V2 receptor (Homo sapiens, UniProt P30518)
[3] = biological target: T2, Cholecystokinin receptor type A (Homo sapiens, UniProt P32238)
T2 sequence (P32238 whole entry): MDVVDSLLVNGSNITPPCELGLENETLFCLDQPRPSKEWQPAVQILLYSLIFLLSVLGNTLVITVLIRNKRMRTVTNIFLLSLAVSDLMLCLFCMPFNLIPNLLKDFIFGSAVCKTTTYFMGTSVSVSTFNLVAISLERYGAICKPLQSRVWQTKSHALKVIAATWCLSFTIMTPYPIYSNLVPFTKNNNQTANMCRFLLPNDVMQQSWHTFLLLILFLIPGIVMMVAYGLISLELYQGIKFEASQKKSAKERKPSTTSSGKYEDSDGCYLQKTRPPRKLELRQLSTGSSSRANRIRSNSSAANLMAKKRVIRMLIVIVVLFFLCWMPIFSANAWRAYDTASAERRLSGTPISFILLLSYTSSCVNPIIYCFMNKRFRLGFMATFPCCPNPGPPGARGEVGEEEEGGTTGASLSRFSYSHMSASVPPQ

[4] = biological target: T3, Muscarinic acetylcholine receptor M2 (Homo sapiens, UniProt P08172); assay type: functional, cell-based
T3 sequence (P08172 whole entry): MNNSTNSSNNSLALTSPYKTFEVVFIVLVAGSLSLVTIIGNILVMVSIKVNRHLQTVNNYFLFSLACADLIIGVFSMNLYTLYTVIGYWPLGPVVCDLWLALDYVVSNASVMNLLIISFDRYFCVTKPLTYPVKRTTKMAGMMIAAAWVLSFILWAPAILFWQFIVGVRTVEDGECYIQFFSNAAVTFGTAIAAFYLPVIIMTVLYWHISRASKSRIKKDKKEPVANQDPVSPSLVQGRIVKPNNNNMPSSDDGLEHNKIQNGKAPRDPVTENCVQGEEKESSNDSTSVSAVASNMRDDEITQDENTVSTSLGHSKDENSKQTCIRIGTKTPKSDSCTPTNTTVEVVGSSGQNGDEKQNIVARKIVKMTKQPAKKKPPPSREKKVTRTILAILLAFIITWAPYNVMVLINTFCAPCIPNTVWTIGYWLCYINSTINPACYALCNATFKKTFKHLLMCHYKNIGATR

[5] = biological target: Muscarinic acetylcholine receptor M3 (Homo sapiens, UniProt P20309)
Cannabinoid receptor 1 [6] = biological target: T4, Cannabinoid receptor 1 (Homo sapiens, UniProt P21554); assay type: functional, cell-based
Cannabinoid receptor 1 [7] = biological target: T4, Cannabinoid receptor 1; assay type: functional, cell-based; remark: listed apart in the source
Endothelin-1 receptor = biological target: T5, Endothelin-1 receptor (Homo sapiens, UniProt P25101)
T5 sequence (P25101 whole entry): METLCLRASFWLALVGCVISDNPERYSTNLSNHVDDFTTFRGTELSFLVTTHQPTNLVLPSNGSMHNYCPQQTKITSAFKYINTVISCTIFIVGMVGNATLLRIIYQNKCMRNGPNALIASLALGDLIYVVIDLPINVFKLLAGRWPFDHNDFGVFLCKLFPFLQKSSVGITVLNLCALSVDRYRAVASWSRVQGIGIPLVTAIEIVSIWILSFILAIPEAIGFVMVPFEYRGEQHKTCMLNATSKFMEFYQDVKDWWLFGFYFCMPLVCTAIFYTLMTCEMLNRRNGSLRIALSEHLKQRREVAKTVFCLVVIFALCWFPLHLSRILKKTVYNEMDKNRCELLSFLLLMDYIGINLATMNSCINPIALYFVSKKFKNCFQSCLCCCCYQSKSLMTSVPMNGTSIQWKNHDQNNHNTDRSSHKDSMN

[8] = biological target: Gamma-aminobutyric acid receptor subunit alpha-1 (Rattus norvegicus, UniProt P62813); assay type: functional
Histamine H1 receptor = Histamine H1 receptor (Homo sapiens, UniProt P35367)
[9] = biological target: 5-hydroxytryptamine receptor 2A (Homo sapiens, UniProt P28223); assay type: functional, cell-based
[10] = biological target: T6, Neuropeptide Y receptor type 1 (Homo sapiens, UniProt P25929)
T6 sequence (P25929 whole entry): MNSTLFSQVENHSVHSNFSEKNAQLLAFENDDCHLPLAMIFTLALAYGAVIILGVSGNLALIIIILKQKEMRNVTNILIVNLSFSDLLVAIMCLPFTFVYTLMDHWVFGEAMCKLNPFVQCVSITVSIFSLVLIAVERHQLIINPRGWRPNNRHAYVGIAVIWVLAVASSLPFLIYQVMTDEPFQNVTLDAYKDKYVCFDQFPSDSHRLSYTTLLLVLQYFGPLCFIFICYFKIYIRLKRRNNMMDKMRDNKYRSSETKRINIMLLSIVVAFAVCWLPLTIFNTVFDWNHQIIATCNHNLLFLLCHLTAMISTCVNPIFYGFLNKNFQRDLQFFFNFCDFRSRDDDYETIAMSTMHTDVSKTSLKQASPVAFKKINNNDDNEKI

[11] = biological target: cGMP-inhibited 3',5'-cyclic phosphodiesterase 3A (Homo sapiens, UniProt Q14432); assay type: functional
Note: assay procedure not described here.

Histamine H1 receptor, sequence (P35367 whole entry): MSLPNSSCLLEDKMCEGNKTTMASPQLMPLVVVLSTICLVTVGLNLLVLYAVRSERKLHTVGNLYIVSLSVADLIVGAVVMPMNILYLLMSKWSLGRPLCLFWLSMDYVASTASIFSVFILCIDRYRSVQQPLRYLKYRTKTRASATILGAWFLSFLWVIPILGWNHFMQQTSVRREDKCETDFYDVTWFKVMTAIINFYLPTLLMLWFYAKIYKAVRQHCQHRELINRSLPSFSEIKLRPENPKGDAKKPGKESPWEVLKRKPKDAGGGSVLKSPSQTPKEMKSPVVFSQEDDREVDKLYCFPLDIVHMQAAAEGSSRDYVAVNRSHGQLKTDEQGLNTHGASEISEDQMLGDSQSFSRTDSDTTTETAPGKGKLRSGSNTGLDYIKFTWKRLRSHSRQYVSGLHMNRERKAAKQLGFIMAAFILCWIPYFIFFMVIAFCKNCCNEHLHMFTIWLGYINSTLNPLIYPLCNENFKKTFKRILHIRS
Gamma-aminobutyric acid receptor subunit alpha-1, sequence (P62813 whole entry): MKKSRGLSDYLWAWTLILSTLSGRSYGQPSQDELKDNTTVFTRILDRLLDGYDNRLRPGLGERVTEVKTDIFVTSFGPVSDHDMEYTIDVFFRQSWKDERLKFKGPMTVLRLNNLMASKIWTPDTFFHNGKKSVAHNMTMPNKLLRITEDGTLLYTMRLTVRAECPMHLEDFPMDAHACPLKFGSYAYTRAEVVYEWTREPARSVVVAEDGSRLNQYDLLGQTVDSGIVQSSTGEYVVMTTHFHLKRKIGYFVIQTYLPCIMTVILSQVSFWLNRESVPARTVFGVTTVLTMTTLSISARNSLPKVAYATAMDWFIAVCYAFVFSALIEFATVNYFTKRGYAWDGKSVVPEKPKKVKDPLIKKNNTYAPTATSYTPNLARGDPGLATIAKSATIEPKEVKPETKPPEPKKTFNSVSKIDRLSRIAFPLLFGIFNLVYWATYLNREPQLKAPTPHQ
Vasopressin V2 receptor, sequence (P30518 whole entry): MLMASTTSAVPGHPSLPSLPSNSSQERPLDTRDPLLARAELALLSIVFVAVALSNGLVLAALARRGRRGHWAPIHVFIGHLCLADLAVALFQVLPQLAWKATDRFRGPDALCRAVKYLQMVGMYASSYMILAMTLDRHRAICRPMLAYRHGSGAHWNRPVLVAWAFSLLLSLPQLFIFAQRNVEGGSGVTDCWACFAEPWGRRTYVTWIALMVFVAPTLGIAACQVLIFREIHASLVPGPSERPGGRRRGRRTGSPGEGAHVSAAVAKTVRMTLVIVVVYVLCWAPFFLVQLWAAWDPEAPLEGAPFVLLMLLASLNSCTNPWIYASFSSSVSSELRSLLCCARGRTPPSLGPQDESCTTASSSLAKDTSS
Beta-2 adrenergic receptor, sequence (P07550 whole entry): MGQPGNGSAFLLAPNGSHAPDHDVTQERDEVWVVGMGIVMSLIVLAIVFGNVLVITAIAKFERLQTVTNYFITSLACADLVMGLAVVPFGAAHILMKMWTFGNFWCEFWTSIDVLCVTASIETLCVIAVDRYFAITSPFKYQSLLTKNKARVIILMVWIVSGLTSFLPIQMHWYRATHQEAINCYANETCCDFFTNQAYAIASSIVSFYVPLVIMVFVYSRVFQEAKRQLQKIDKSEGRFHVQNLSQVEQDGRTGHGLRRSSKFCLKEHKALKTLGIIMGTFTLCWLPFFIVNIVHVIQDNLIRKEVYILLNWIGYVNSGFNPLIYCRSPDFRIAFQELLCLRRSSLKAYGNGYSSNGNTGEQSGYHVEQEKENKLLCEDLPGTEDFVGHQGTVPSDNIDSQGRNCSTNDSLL
Vasopressin V1a receptor, sequence (P37288 whole entry): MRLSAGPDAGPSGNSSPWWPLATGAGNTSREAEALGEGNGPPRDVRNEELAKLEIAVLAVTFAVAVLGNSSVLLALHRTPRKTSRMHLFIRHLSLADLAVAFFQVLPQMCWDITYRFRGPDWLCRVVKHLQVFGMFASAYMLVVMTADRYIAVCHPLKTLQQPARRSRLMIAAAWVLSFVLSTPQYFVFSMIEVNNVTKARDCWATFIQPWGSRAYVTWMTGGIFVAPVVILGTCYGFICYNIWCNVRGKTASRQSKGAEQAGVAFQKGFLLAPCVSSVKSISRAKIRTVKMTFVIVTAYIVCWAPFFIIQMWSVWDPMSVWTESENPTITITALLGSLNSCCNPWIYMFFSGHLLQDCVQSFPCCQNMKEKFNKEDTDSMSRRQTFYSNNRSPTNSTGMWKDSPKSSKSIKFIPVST
T4 sequence (P21554 whole entry): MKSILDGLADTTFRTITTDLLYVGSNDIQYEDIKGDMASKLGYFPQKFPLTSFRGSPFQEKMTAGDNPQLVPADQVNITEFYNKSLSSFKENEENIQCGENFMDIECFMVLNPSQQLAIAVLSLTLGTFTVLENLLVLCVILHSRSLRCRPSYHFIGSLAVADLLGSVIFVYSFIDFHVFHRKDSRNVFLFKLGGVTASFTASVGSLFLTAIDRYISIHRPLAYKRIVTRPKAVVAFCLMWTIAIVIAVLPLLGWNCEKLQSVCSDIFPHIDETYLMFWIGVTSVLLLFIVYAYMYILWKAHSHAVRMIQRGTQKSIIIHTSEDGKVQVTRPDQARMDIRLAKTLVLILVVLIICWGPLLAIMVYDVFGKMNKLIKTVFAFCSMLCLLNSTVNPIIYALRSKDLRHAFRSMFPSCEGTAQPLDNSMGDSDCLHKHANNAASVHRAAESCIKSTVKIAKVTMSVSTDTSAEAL
Muscarinic acetylcholine receptor M3, sequence (P20309 whole entry): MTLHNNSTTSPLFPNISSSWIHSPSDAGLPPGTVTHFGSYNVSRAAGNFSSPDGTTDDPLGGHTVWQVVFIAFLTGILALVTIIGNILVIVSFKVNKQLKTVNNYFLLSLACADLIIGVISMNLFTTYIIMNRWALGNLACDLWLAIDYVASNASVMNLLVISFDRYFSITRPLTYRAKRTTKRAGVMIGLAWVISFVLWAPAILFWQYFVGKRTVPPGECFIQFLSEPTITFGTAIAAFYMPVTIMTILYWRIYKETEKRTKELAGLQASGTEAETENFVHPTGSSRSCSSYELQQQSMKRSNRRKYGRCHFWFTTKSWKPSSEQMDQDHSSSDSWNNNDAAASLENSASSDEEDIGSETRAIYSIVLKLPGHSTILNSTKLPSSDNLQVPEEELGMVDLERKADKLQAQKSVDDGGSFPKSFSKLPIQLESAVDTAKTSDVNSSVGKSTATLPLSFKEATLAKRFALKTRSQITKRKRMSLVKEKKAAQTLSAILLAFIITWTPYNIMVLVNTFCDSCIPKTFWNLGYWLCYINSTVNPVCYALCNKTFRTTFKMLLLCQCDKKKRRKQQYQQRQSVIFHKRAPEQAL
cGMP-inhibited 3',5'-cyclic phosphodiesterase 3A, sequence (Q14432 whole entry): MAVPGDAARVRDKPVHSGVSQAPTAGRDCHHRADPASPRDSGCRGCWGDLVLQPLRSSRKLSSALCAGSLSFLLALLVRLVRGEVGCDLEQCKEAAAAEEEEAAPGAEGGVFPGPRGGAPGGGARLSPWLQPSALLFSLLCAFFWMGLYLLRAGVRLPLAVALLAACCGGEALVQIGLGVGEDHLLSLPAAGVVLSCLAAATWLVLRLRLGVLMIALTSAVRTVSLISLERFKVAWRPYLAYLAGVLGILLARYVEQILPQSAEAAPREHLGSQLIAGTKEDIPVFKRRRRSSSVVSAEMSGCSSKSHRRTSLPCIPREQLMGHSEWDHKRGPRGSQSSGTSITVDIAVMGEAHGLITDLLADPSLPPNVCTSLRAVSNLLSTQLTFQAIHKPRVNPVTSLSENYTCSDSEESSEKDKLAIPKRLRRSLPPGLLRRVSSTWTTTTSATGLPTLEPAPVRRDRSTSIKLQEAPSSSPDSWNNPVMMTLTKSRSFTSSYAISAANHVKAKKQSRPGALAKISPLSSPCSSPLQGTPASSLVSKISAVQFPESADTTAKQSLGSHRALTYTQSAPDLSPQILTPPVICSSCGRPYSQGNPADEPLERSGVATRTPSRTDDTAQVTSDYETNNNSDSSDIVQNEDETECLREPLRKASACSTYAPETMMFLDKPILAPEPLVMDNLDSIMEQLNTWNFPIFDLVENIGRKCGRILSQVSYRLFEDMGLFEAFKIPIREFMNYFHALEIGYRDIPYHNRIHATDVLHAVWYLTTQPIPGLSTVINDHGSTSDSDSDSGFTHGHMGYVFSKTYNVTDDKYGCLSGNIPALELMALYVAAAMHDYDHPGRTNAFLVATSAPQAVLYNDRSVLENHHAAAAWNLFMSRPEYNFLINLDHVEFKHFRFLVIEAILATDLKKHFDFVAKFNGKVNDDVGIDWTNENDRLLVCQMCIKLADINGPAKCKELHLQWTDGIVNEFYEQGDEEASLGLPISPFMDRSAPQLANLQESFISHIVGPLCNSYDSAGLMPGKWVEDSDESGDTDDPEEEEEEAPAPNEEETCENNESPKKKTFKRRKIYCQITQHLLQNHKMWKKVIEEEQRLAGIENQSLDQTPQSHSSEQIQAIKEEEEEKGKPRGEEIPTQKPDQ
5-hydroxytryptamine receptor 2A, sequence (P28223 whole entry): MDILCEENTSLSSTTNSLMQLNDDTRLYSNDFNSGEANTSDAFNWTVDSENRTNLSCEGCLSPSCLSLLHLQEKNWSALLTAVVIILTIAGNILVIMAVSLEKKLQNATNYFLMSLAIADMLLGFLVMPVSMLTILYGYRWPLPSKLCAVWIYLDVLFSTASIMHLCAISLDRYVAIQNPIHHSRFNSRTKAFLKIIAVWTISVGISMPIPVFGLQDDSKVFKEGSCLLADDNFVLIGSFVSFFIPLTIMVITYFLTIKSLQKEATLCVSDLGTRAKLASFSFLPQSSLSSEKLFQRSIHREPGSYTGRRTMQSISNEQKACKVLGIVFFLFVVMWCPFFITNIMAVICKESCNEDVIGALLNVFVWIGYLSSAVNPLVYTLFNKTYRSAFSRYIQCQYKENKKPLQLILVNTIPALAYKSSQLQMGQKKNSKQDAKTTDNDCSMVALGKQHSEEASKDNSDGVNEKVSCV

Structure (SMILES) | AC50 [1] | AC50 [2] | AC50 (Vasopressin V1a receptor) | AC50 (Vasopressin V2 receptor) | AC50 [3] | AC50 [4] | AC50 [5] | AC50 (Cannabinoid receptor 1 [6]) | AC50 (Cannabinoid receptor 1 [7]) | AC50 (Endothelin-1 receptor) | AC50 [8] | AC50 (Histamine H1 receptor) | AC50 [9] | AC50 [10] | AC50 [11]
Oc1cc(O)c(Cl)cn1 | > 30 µM | > 30 µM | > 30 µM | > 30 µM | > 30 µM | > 30 µM | > 30 µM | > 30 µM | > 30 µM | > 30 µM | > 30 µM | > 30 µM | > 30 µM | > 30 µM | > 30 µM
COc1cc(C)c(/C=C/C(C)=C/C=C/C(C)=C/C(=O)O)c(C)c1C [ACITRETIN] | > 10 µM | > 10 µM | > 10 µM | > 10 µM | > 10 µM | > 10 µM | > 30 µM | > 30 µM | > 30 µM |  | > 10 µM | > 10 µM | > 10 µM | > 10 µM | > 10 µM
O=C(O)c1ccc(NC(=O)[C@H](Cc2ccc(O)cc2)NC(=O)c2ccccc2)cc1 [BENTIROMIDE] | > 10 µM | > 10 µM | > 10 µM | > 10 µM | > 10 µM | > 10 µM | > 30 µM |  |  |  | > 10 µM | > 10 µM | > 10 µM | > 10 µM | > 30 µM
NS(=O)(=O)c1cc2c(cc1Cl)N=C(CSCc1ccccc1)NS2(=O)=O [BENZTHIAZIDE] | 7.4 µM | > 10 µM | > 10 µM | > 10 µM | > 10 µM | > 10 µM | > 30 µM |  |  |  | > 10 µM | > 30 µM | > 10 µM | > 10 µM | > 30 µM
Clc1ccc(CCC(Cn2ccnc2)Sc2c(Cl)cccc2Cl)cc1 (stereo not drawn) [BUTOCONAZOLE] | 19 µM | > 30 µM | > 30 µM | > 30 µM | > 30 µM | > 30 µM | 21 µM |  |  | > 30 µM | > 30 µM | > 30 µM | > 30 µM | > 30 µM | > 30 µM
CC(C)[C@@H](C)/C=C/[C@@H](C)[C@H]1CC[C@H]2/C(=C/C=C3\C[C@@H](O)CC[C@@H]3C)CCC[C@]12C [DIHYDROTACHYSTEROL] | > 10 µM | > 10 µM | > 10 µM | > 10 µM | > 10 µM | > 10 µM | > 30 µM |  |  |  | > 10 µM | > 10 µM | > 10 µM | > 10 µM | > 30 µM
Oc1ccc(CCNCCCCCCNCCc2ccccc2)cc1O [DOPEXAMINE] | 19 µM | 3.8 µM | > 30 µM | > 30 µM | > 30 µM | > 30 µM | > 30 µM | > 30 µM | > 30 µM | > 30 µM | > 30 µM | 15 µM | > 30 µM | > 30 µM | > 30 µM
CCc1cc2c(s1)-n1c(C)nnc1CN=C2c1ccccc1Cl [ETIZOLAM] | > 30 µM | > 30 µM | > 30 µM | > 30 µM | > 30 µM | > 30 µM | > 30 µM | > 30 µM | > 30 µM | > 30 µM | 0.0091 µM | > 30 µM | > 30 µM | > 30 µM | > 30 µM
CC(=O)[C@H]1CC[C@H]2[C@@H]3C[C@H](C)C4=CC(=O)CC[C@]4(C)[C@H]3[C@@H](O)C[C@]12C [MEDRYSONE] | > 10 µM | > 10 µM | > 10 µM | > 10 µM | > 10 µM | > 10 µM | > 30 µM | > 30 µM | > 30 µM |  | > 10 µM | > 10 µM | > 10 µM | > 10 µM | > 30 µM
CCCC(C)(COC(N)=O)COC(N)=O [MEPROBAMATE] | > 10 µM | > 10 µM | > 10 µM | > 10 µM | > 10 µM | > 10 µM | > 30 µM |  |  |  | > 10 µM | > 10 µM | > 10 µM | > 10 µM | > 30 µM
O=C(c1cc(Cc2n[nH]c(=O)c3ccccc23)ccc1F)N1CCN(C(=O)C2CC2)CC1 [OLAPARIB] | > 10 µM | > 30 µM | > 30 µM | > 30 µM | > 30 µM | > 10 µM | > 30 µM |  |  |  | > 10 µM | > 10 µM | > 10 µM | > 30 µM | 24 µM
CC1=C(/C=C/C(C)=C/C=C/C(C)=C/CO)C(C)(C)CCC1 [RETINOL] | > 30 µM | > 10 µM | > 10 µM | > 10 µM | > 10 µM | > 10 µM | > 30 µM |  |  |  | > 10 µM | > 10 µM | > 10 µM | > 10 µM | > 30 µM
C=CC[N+]1([C@H]2C[C@H]3[C@@H]4CC[C@H]5C[C@H](O)[C@@H](N6CCOCC6)C[C@]5(C)[C@H]4CC[C@]3(C)[C@H]2OC(C)=O)CCCC1 [ROCURONIUM] | > 30 µM | > 30 µM | > 30 µM | > 30 µM | > 30 µM | > 30 µM | > 30 µM |  |  |  | > 30 µM | > 30 µM | > 30 µM | > 30 µM | > 30 µM
CC(C)(C)NCC(O)c1ccccc1Cl (stereo not drawn) [TULOBUTEROL] | > 30 µM |  | > 30 µM | > 30 µM | > 30 µM | > 30 µM | > 30 µM | > 30 µM | > 30 µM | > 30 µM | > 30 µM |  | > 30 µM | > 30 µM | > 30 µM
